Laboratory results taken from patent US10610526B2 (priority 2015, dated 2020).

How the values were obtained:
α6/3β2β3 nAChRs [1] = target: T1, α6/3β2β3 nAChRs (Homo sapiens, UniProt Q15825)
α3β4α5 nAChRs [2] = target: T2, α3β4α5 nAChRs (Homo sapiens, UniProt P30926+P32297); test: cell-based; conditions: read-out: Agonist Effect Emax
α3β4α5 nAChRs [3] = target: T2, α3β4α5 nAChRs
α6/3β2β3 nAChRs [4] = target: T1, α6/3β2β3 nAChRs; test: cell-based; conditions: read-out: Agonist Effect Emax
α7 nAChRs = α7 nAChRs (Homo sapiens, UniProt P36544); format: cell-based
α4β2 nAChRs = α4β2 nAChRs (Homo sapiens, UniProt P17787+P43681); test: cell-based; format: cell-based
[5] = rat, in vivo; cited from earlier work

Chain of α7 nAChRs (P36544 23-502): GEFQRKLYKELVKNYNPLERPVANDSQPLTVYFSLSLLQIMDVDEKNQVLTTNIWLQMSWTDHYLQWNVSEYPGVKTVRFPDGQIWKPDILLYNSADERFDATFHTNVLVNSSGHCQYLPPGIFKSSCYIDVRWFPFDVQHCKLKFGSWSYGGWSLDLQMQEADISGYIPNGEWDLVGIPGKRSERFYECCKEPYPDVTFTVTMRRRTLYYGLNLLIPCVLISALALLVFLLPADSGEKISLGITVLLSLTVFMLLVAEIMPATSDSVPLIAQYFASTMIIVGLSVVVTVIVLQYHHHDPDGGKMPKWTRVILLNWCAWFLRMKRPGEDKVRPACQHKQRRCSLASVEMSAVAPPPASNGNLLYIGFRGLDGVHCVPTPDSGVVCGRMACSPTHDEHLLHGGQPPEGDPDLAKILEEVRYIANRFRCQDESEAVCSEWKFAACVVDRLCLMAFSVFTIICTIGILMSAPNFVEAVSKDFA
Chain of α4β2 nAChRs (P43681 29-627 limits assumed): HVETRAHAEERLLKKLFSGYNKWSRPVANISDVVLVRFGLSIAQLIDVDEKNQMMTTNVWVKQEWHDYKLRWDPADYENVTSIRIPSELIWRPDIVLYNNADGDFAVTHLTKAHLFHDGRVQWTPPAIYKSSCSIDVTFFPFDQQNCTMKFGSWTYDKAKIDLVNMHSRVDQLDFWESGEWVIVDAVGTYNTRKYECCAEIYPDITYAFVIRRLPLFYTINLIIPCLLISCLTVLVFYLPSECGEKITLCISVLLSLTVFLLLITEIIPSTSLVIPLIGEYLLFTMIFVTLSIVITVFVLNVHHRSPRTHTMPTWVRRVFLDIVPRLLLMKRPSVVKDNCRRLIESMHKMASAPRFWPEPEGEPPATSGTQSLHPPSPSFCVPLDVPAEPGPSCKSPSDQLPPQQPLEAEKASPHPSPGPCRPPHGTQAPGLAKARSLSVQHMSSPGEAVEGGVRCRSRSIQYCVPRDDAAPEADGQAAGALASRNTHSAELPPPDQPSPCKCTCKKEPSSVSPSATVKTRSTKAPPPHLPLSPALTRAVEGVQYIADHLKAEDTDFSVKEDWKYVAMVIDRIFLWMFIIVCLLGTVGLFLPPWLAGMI
Chain of α4β2 nAChRs (P17787 26-502): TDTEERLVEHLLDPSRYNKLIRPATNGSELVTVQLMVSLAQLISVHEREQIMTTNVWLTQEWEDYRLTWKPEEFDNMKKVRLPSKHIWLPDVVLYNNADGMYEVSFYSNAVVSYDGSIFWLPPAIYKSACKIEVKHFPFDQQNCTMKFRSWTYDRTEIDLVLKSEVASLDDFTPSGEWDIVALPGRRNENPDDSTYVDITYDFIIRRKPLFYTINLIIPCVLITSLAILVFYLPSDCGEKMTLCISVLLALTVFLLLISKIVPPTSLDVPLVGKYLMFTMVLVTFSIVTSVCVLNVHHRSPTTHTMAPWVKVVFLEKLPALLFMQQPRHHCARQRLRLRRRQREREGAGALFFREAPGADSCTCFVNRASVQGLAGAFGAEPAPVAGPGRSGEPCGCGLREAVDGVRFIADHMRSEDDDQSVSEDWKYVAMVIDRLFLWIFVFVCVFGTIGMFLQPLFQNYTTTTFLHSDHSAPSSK
T1 sequence (Q15825 26-239 limits assumed): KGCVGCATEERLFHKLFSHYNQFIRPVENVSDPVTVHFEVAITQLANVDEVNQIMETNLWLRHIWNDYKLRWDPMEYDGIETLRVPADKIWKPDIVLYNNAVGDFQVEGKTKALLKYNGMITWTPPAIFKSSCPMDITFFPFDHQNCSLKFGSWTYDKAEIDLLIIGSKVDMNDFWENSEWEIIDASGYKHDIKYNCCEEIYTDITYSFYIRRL
T1 sequence (P17787 26-238 limits assumed, further chain): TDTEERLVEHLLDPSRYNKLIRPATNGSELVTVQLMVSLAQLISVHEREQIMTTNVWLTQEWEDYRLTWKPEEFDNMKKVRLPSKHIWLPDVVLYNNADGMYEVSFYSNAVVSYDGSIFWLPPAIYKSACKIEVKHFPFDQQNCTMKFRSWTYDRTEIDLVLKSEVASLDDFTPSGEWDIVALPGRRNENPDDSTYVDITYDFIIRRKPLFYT
T1 sequence (Q05901 22-237 limits assumed, further chain): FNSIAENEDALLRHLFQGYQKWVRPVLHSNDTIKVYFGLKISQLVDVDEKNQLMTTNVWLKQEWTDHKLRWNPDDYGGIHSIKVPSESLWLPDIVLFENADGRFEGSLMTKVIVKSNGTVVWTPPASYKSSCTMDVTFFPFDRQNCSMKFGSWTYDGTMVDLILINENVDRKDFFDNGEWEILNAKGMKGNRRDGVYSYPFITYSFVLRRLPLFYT
T2 sequence (P32297 32-505): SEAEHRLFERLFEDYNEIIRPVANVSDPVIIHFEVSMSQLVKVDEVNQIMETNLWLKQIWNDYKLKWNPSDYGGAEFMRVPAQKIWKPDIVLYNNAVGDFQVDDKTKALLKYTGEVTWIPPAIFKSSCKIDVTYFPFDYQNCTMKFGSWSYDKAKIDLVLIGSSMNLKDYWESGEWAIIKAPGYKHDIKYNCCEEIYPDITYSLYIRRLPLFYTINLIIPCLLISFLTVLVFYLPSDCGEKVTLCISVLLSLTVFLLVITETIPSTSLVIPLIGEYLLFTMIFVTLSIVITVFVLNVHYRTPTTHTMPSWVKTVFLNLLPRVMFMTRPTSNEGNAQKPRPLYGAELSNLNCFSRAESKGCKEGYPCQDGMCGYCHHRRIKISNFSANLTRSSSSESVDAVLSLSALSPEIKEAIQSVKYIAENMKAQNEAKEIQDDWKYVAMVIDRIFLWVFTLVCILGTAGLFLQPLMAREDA
T2 sequence (P30926 22-498): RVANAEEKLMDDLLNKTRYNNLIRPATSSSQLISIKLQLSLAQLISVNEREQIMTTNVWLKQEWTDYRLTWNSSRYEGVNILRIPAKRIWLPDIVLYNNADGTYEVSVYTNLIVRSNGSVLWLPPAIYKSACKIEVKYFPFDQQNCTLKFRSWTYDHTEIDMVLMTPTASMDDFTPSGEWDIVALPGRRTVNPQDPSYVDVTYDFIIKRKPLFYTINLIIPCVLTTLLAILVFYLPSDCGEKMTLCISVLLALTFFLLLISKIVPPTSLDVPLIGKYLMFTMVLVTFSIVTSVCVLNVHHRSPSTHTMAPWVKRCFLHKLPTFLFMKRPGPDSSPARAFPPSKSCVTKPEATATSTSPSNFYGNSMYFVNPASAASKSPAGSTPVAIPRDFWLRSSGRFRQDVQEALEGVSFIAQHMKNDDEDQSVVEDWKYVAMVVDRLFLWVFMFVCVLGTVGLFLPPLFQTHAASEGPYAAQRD
T2 sequence (P30532 23-468 partner): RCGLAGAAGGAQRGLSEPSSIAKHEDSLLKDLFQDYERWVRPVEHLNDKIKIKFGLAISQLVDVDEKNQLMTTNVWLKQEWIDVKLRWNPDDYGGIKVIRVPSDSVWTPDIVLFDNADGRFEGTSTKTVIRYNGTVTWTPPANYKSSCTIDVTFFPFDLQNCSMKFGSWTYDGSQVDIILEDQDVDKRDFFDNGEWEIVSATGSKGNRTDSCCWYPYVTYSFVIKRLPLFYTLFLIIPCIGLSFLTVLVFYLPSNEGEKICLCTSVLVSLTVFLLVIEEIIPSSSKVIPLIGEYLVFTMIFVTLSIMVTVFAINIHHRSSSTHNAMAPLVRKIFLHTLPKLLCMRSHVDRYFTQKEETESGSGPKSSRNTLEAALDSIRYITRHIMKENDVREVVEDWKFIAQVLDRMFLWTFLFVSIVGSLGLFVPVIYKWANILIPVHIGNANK

SMILES	Agonist Effect Hillslope (α6/3β2β3 nAChRs [1])	Antagonist Effect Hillslope (α6/3β2β3 nAChRs [1])	Emax (α3β4α5 nAChRs [2]) [%]	Agonist Effect Hillslope (α3β4α5 nAChRs [3])	Antagonist Effect Hillslope (α3β4α5 nAChRs [3])	Emax (α6/3β2β3 nAChRs [4]) [%]	Agonist Effect Emax (α6/3β2β3 nAChRs [1]) [%]	Agonist Effect Emax (α3β4α5 nAChRs [3]) [%]	Agonist Effect Hillslope (α7 nAChRs)	Antagonist Effect Hillslope (α7 nAChRs)	Agonist Effect Hillslope (α4β2 nAChRs)	Antagonist Effect Hillslope (α4β2 nAChRs)	agonist character at human α6/3β2β3 nAChRs (α6/3β2β3 nAChRs [1])	agonist character at human α3β4α5 nAChRs (α3β4α5 nAChRs [3])	agonist character at human α7 nAChRs (α7 nAChRs)	agonist character at human α4β2 nAChRs (α4β2 nAChRs)	Emax (α4β2 nAChRs; read-out: Agonist Effect Emax) [%]	carcinogenicity [5]
CN1CCCC1c1cccnc1 (racemic) [Synthetic RS racemic nicotine, RS-Nicotine]	−0.67	1.36	65	−2.13	1.52	91												
CN1CCC[C@H]1c1cccnc1 [Alchem S nicotine, S nicotine]	−0.81	0.97		−1.46	1.34		95	87	−3.15	3.06	−0.81	1.01						
CN1CCCC1c1cccnc1 (stereo not drawn) [Ref. nicotine (Sigma-Aldrich), nicotine]	−0.74	0.72	100	−1.48	1.59	100			−2.23		−0.80	0.85						
CN1CCC[C@H]1c1cccnc1 [Sigma-Aldrich S nicotine, S nicotine]	−0.69	0.96		−1.91	1.38		100	84	−2.49	2.76	−0.84	0.94						
CN1CCC[C@@H]1c1cccnc1 [Synthetic R nicotine, R nicotine]	−0.92	1.07	21	−2.37	0.95	70			−2.37	2.55	−0.87	0.67	full, weak agonist	partial, weak agonist	full, weak agonist	partial agonist	28	
CN1CCC[C@H]1c1cccnc1 [Synthetic S nicotine, S nicotine]	−0.70	1.10	96	−1.48	1.11	97												
CN1CCCC1c1cccnc1 (stereo not drawn) [synthetic nicotine, nicotine]																		not carcinogenic
